One assay deals with T1, C-IAP1 BIR3 (Homo sapiens, UniProt Q13490).
T1 construct: 0.2 μM C-IAP1 BIR3
In words: Fluorescence polarization peptide binding assay, C-IAP1 BIR3. Conditions: for IC50: 0.2 μM C-IAP1 BIR3, 5 nM AVP-diPhe-FAM probe, one hour incubation; for Ki: determined from the IC50 values (procedure of Keating et al.). How it is done: (§1) Polarization experiments were performed on an Analyst HT 96-384 reader (Molecular Devices Corp.) in order to determine dissociation constants (Kd) between IAP protein BIR domains and the fluorescent probe. Samples for fluorescence polarization affinity experiments were prepared by addition of serial dilutions of IAP BIR domains (C-IAP1 BIR3, C-IAP-2 BIR3, ML/X-IAP chimera MLXBIR3SG and X-IAP BIR3) in polarization buffer (50 mM Tris [pH 7.2], 120 mM NaCl, 1% bovine globulins 5 mM DTT and 0.05% octylglucoside) to 5-carboxyflourescein-conjugated AVPdi-Phe-NH2 (AVP-diPhe-FAM) at 5 nM final concentration.
(§2) The reactions were read after an incubation time of 1 hour at room temperature with standard cut-off filters for the fluorescein fluorophore (λex=485 nm; λem=530 nm) in 384-well black plates (Molecular Devices Corp.). Fluorescence polarization values were plotted as a function of the protein concentration, and the effective concentration 50 (EC50) values were obtained by fitting the data to a 4-parameter equation using Kaleidagraph software (Synergy software, Reading, Pa.). The apparent Kd values were determined from the EC50 values. Inhibition Constants (Ki values) for the antagonists were determined by the addition of 0.06 μM MLXBIR3SG, 0.5 μM X-IAP BIR3, 0.2 μM C-IAP1 BIR3 or 0.4 μM C-IAP-2 BIR3 to wells containing 5 nM of the AVP-diPhe-FAM probe as well as 1:3 serial dilutions of antagonist compounds starting at a concentration of 200 μM in the polarization buffer. Samples were read after an incubation time of one hour. Fluorescence polarization values were plotted as a function of the antagonist concentration, and the IC50 values were obtained by fitting the data to a 4-parameter equation using Kaleidagraph software (Synergy software, Reading, Pa.). Ki values for the antagonists were determined from the IC50 values according to the procedure of Keating, S. M., Marsters, J, Beresini, M., Ladner, C., Zioncheck, K., Clark, K., Arellano, F., and Bodary, S. (2000) in Proceedings of SPIE: In Vitro Diagnostic Instrumentation (Cohn, G. E., Ed.) pp 128-137, Bellingham, Wash. […] All values are micromolar.
A general note: Polarisation of emitted light reports the rotation of a fluorescent probe.

For a further assay, the target named is T2, C-IAP2 BIR3 (Homo sapiens, UniProt Q13489).
T2 construct: 0.4 μM C-IAP-2 BIR3
T2 sequence (Q13489 238-349 limits assumed): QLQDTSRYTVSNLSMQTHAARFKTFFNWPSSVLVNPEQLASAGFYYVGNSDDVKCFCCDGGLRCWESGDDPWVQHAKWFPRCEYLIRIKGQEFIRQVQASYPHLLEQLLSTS
In words: Fluorescence polarization peptide binding assay, C-IAP2 BIR3. To be noted: for IC50: 0.4 μM C-IAP-2 BIR3, 5 nM AVP-diPhe-FAM probe, one hour incubation; for Ki: determined from the IC50 values (procedure of Keating et al.). The protocol:
as §1, §2

For assay [1], the target named is T3, ML/X-IAP chimera MLXBIR3SG (Homo sapiens, UniProt Q96CA5, S150G).
T3 sequence (Q96CA5 with tags, fused parts or gaps S150G): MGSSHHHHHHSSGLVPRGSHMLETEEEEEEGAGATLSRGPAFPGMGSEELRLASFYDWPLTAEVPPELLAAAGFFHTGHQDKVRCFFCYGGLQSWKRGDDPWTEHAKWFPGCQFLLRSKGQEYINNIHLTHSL
In words: Fluorescence polarization peptide binding assay, MLXBIR3SG. To be noted: for IC50: 0.06 μM MLXBIR3SG, 5 nM AVP-diPhe-FAM probe, one hour incubation; for Ki: determined from the IC50 values (procedure of Keating et al.). How it is done: The following fluorescence polarization experiments used a chimeric BIR domain referred to as MLXBIR3SG in which 11 of 110 residues correspond to those found in XIAP BIR3, while the remainder correspond to ML-IAP BIR. […] The improved caspase-9 inhibition of the chimeric BIR domain MLXBIR3SG has been correlated with increased inhibition of doxorubicin-induced apoptosis when transfected into MCF7 cells.
as §1, §2

Another assay has as its target T4, X-IAP BIR3 (Homo sapiens, UniProt P98170).
T4 construct: 0.5 μM X-IAP BIR3
In words: Fluorescence polarization peptide binding assay, X-IAP BIR3. To be noted: for IC50: 0.5 μM X-IAP BIR3, 5 nM AVP-diPhe-FAM probe, one hour incubation; for Ki: determined from the IC50 values (procedure of Keating et al.). The protocol:
as §1, §2

Values joined by “and” are separate entries in the source; they are usually repeats but may differ in a detail not shown here. Equal values may be shown once.

T4 sequence (P98170 241-356 limits assumed): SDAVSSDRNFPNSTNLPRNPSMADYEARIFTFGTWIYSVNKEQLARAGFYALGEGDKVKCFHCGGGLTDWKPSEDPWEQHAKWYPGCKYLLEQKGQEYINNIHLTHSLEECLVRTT
T1 sequence (Q13490 253-363 limits assumed): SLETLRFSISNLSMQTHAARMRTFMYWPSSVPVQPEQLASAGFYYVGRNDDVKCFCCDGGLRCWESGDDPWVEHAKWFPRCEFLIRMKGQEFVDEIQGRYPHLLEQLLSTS

By IC50 is commonly meant the midpoint of a concentration-inhibition curve. The Ki is the equilibrium dissociation constant of an inhibitor or competing ligand from its target. Take `CN[C@@H](C)C(=O)N[C@H](C(=O)N[C@H](C(=O)Nc1snnc1-c1ccccc1)C(C)(C)C)C1CCCCC1` [Compound 1]: the IC50 at C-IAP1 BIR3 is 283 nM and 165 nM; at C-IAP2 BIR3, 468 nM and 225 nM; in assay [1] it was 189 nM and 181 nM; on X-IAP BIR3, 9940 nM and 14800 nM. For the same compound, the Ki at C-IAP1 BIR3 was 44 nM and 26 nM; at C-IAP2 BIR3 it was 101 nM and 49 nM; in assay [1], 43 nM and 41 nM; at X-IAP BIR3, 1770 nM and 2630 nM.

For `CN[C@@H](C)C(=O)N[C@H](C(=O)N[C@H](C(=O)Nc1snnc1-c1ccccc1)C(C)(C)OC)C1CCCCC1` [Compound 2], the 50% inhibitory concentration (IC50) on C-IAP1 BIR3 was 192 nM; on C-IAP2 BIR3, 256 nM; in assay [1] it was 279 nM; on X-IAP BIR3, 11100 nM. For the same compound, the inhibition constant Ki worked out at 30 nM at C-IAP1 BIR3, 55 nM on C-IAP2 BIR3, 64 nM in assay [1] and 1980 nM at X-IAP BIR3.

As for `CN[C@@H](C)C(=O)N[C@H](C(=O)N[C@H](C(=O)Nc1snnc1-c1ccccc1)C1(C)CCOCC1)C1CCCCC1` [Compound 3], the IC50 at C-IAP1 BIR3 is 245 nM; on C-IAP2 BIR3, 272 nM; in assay [1] it was 178 nM; on X-IAP BIR3, 11200 nM. Further, the inhibition constant Ki was found to be 38 nM at C-IAP1 BIR3, 59 nM at C-IAP2 BIR3, 41 nM in assay [1] and 1990 nM on X-IAP BIR3.

For the compound `CN[C@@H](C)C(=O)N[C@H](C(=O)N[C@H](C(=O)Nc1snnc1-c1ccccc1)C(F)(F)F)C1CCCCC1` [Compound 5], the IC50 at C-IAP1 BIR3 is 2120 nM; on C-IAP2 BIR3, 3480 nM; in assay [1], 4820 nM; on X-IAP BIR3 it was 13500 nM. Moreover, the inhibitory constant (Ki) on C-IAP1 BIR3 came to 328 nM; at C-IAP2 BIR3, 751 nM; in assay [1], 1100 nM; at X-IAP BIR3 it was 2410 nM.

`CN[C@@H](C)C(=O)N[C@H](C(=O)N[C@H](C(=O)Nc1snnc1-c1ccccc1)C(C)(C)F)C1CCCCC1` [Compound 6]: the IC50 was found to be 131 nM at C-IAP1 BIR3, 222 nM on C-IAP2 BIR3, 248 nM in assay [1] and 8840 nM on X-IAP BIR3. Moreover, the inhibitory constant (Ki) at C-IAP1 BIR3 was 20 nM; at C-IAP2 BIR3, 48 nM; in assay [1] it was 57 nM; at X-IAP BIR3, 1570 nM.

As to `CN[C@@H](C)C(=O)N[C@H](C(=O)N(C)[C@H](C(=O)Nc1ccccc1-c1ncccn1)C(C)C)C1CCCCC1` [Compound 7], the half-inhibitory concentration (IC50) at C-IAP1 BIR3 is 14200 nM; at C-IAP2 BIR3 it was 27000 nM; in assay [1], over 200000 nM; at X-IAP BIR3 it was over 200000 nM. Also, the Ki is 3120 nM on C-IAP1 BIR3, 4570 nM on C-IAP2 BIR3, over 46000 nM in assay [1] and over 35000 nM at X-IAP BIR3.

On to `CN[C@@H](C)C(=O)N[C@H](C(=O)N[C@H](C(=O)NCC(c1ccccc1)c1ccccc1)C(F)(F)F)C1CCCCC1` [Compound 8], for which the half-maximal inhibitory concentration (IC50) on C-IAP1 BIR3 was 3120 nM; on C-IAP2 BIR3, 1940 nM; in assay [1], 899 nM; on X-IAP BIR3, over 200000 nM. Further, the Ki at C-IAP1 BIR3 is 483 nM; on C-IAP2 BIR3, 419 nM; in assay [1], 205 nM; at X-IAP BIR3, over 35000 nM.

For `CN[C@@H](C)C(=O)N[C@H](C(=O)N[C@H](C(=O)NCC(c1ccccc1)c1ccccc1)C(C)(C)OC)C1CCOCC1` [Compound 9], on C-IAP1 BIR3, the IC50 is 5840 nM and 3180 nM; the Ki is 905 nM and 492 nM. For the same compound, at X-IAP BIR3, the IC50 was over 200000 nM and the Ki is over 35000 nM.

The values above are taken from patent US20110046066A1, “INHIBITORS OF IAP” (GENENTECH, INC., priority 2008, published 2011).
